Literature values in patent publication US20220211847A1, “COMBINATION OF MONALIZUMAB, DURVALUMAB, CHEMOTHERAPY AND BEVACIZUMAB OR CETUXIMAB FOR THE TREATMENT OF COLORECTAL CANCER” (MEDIMMUNE LIMITED, priority 2019, published 2022).
Like-named read-outs stand apart in the source and are kept apart here.

Experiments:
CRC = details: similar population
[1] = system: unresectable metastatic disease (mCRC); details: added to oxaliplatin-based regimens
[2] = system: microsatellite instability-high CRC or mismatch repair deficient CRC; details: monotherapy; MSI-high or mismatch repair deficient CRC
[3] = system: MSI high CRCs and MSS CRCs

CNC(=O)c1cc(Oc2ccc(NC(=O)Nc3ccc(Cl)c(C(F)(F)F)c3)c(F)c2)ccn1 [regorafenib]
median OS (CRC): 6.4 months

bevacizumab: recombinant humanized monoclonal antibody directed against human vascular endothelial growth factor (VEGF)
increase in Progression-free survival (PFS) compared with regimens without bevacizumab [1]: 1.4 months
difference in Overall Survival (OS) ([1]; not statistically significant): 1.4 months

nivolumab
ORR [2]: 28%

pembrolizumab: humanized monoclonal IgG4 antibody directed against human cell surface receptor PD-1
objective response rate (ORR) ([3]; 10 mg/kg Q2W, microsatellite proficient CRC): 0%
immune-related objective response rate ([3]; MSI high CRCs): 40%
immune-related progression free survival rate ([3]; MSI high CRCs): 78%
patients who experienced disease progression ([3]; MSI-H CRC): 1 of 10
patients who experienced disease progression ([3]; MSS CRC): 11/18
immune-related objective response rate ([3]; MSS CRCs): 0%
immune-related progression free survival rate ([3]; MSS CRCs): 11%
